Measured values: patent publication US11466025B2, “Thienopyridine derivatives containing unsaturated aliphatic olefinic bond, preparation method and use thereof” (Tianjin Institute of Pharmaceutical Research Co., Ltd., priority 2017, dated 2022)
Where two headings read alike, the source gives them in different places.

What was measured:
beagle dogs = assay: Safety evaluation in single dosing; assay type: in vivo; settings: intragastric single dose of 2 g/kg
Protocol: Safety Evaluation of Compounds I-1 and I-2 in Single Dosing: The test consisted of a physiological control group, a solvent control group, and two administration groups, with 4 animals in each group, half of which were male and the other half of which were female. The animals were intragastrically administered with the test compounds at a single dose of 2 g/kg. The solvent control group was administered with an equal volume of the blank solvent. Animals were daily observed for various conditions during the test. ECG examinations were performed before administration, 1 h after administration, and 7 and 14 days after administration. Hematological and blood biochemical tests were performed before administration and 1, 7 and 12 days after administration.

[1] = system: arteriovenous bypass thrombosis in rats; assay: Test of effect of compounds on arteriovenous bypass thrombosis in rats; assay type: in vivo, SD rats; set-up: Dry weight of thrombus (%): unit not given here; settings: rats; for Inhibition rate (%): dry weight of thrombus; for Dry weight of thrombus (%): loop opened 2.5 h after administration, 15 min
Protocol: Test of Effect of Compounds on Arteriovenous Bypass Thrombosis in Rats
Male SD rats were randomly divided into solvent control group, positive drug control group and test compound group. The solvent control group was administered a corresponding volume of the solvent. […] Rats were anesthetized with 4% chloral hydrate (0.32 g/kg), and fixed on the operating table at the supine position. The right common carotid artery and the left external jugular vein were separated, and was each inserted with a Teflon tube filled with normal saline solution containing heparin (50 U/mL), which were connected through another Teflon tube. A 6 cm long cotton thread was placed at the joints of the two tubes. After 2.5 h of administration, the arteriovenous loop was opened in each group and circulated for 15 min. The blood flow was interrupted, and the cotton thread wrapped with the thrombus was quickly removed and weighed. The weight of the cotton thread was subtracted to obtain the wet weight of the thrombus, and then it was baked in the oven to constant weight and weighed. The weight of the cotton thread was subtracted to obtain the dry weight of the thrombus.

[2] = system: platelet aggregation induced by ADP; assay: Test of inhibitory effect of compounds on platelet aggregation in rats (ex vivo, ADP-induced, after intragastric administration); set-up: species or system SD rats; settings: rats; for Inhibition rate (%): platelet aggregation, control = 100%; for Aggregation rate (%): 2 h after administration, ADP 20 uM
Protocol: Test of Inhibitory Effect of Compounds on Platelet Aggregation in Rats Healthy male SD rats were selected and randomly divided into solvent control group, positive drug control group and test compound group. Intragastric administration was carried out, with the administration volume being 10 ml/kg˜bw. […] The platelet count was adjusted to 5×10^8 cells/ml with PPP.

[3] = 1 μM
Protocol: Plasma samples (double sample) containing 1 μM of the compounds of the present invention, clopidogrel hydrogen sulfate (LBGL), 2-oxo product (2-Oxo) were prepared from human blank plasma, and incubated at 37° C. 50 μL of the above incubated plasma samples were taken at different time points, and 100 μL of precipitant (acetonitrile:methanol=7:3) and 50 μL of internal standard were added. The mixture was vortexed for 1 min and centrifuged for 10 min. 100 μL of the supernatant was taken into an inner inserted tube, centrifuged for 5 min, and injected for LC-MS/MS analysis.
Preparation of blank control sample (PPT-0): 100 μL of frozen human blank plasma was taken, to which 195 μL of acetonitrile and 100 μL of internal standard were added, followed by 5 μL of the compound of the present invention, clopidogrel or 2-oxo product (20 μM). The mixture was vortexed for 1 min and centrifuged for 10 min. 100 μL of the supernatant was taken into an inner inserted tube, centrifuged for 5 min, and injected for LC-MS/MS analysis.

C/C=C/C=C/C(=O)Oc1cc2c(s1)CCN([C@H](C(=O)OC)c1ccccc1Cl)C2 [Compound I-2, Methyl (S)-2-(2-chlorophenyl)-2-(2-((2E,4E)-2,4-hexadienoyloxy)-6,7-dihydrothieno[3,2-c]pyridin-5(4H)-yl)-acetate]
ECG examinations, hematological tests and serum biochemical tests (beagle dogs): no obvious abnormalities
Activities, mental condition and diet (beagle dogs; administration and observation period): normal activities, good mental condition, and normal diet
ED50 ([1]; Rattus norvegicus, po, dry weight of thrombus from arteriovenous bypass, intragastric, read-out: ED50): 5.86 mg/kg
Inhibition rate (%) ([1]; intragastric 1 mg/kg): 36.5%
Inhibition rate (%) ([1]; intragastric 3 mg/kg): 40.3%
Inhibition rate (%) ([1]; intragastric 10 mg/kg): 52.1%
Inhibition rate (%) ([1]; intragastric 30 mg/kg): 68.6%
Dry weight of thrombus (%) ([1]; intragastric 1 mg/kg): 6.4 ± 3.6
Dry weight of thrombus (%) ([1]; intragastric 3 mg/kg): 6.1 ± 2.9
Dry weight of thrombus (%) ([1]; intragastric 10 mg/kg): 4.9 ± 2.3
Dry weight of thrombus (%) ([1]; intragastric 30 mg/kg): 3.2 ± 1.5
ED50 ([2]; Rattus norvegicus, inhibition of ADP-induced platelet aggregation, oral administration, read-out: ED50): 1.58 mg/kg
Inhibition rate (%) ([2]; intragastric 0.75 mg/kg): 7.0%
Inhibition rate (%) ([2]; intragastric 1.5 mg/kg): 50.8%
Inhibition rate (%) ([2]; intragastric 3 mg/kg): 85.8%
Aggregation rate (%) ([2]; intragastric 0.75 mg/kg): 55.8 ± 13.9%
Aggregation rate (%) ([2]; intragastric 1.5 mg/kg): 29.6 ± 8.7 %
Aggregation rate (%) ([2]; intragastric 3 mg/kg): 8.5 ± 9.4 %
2-Oxo metabolite concentration in human plasma ([3]; 0 min): 0.0192 µM
2-Oxo metabolite in human plasma, % ([3]; 0 min): 1.74%
Concentration of incubated compound in human plasma ([3]; 0 min): 1.11 µM
Incubated compound in human plasma, % ([3]; 0 min): 100%
Generation of 2-oxo (2-Oxo) product in human plasma [3]: rapidly generate 2-oxo products
2-Oxo metabolite concentration in human plasma ([3]; 5 min): 0.0246 µM
2-Oxo metabolite in human plasma, % ([3]; 5 min): 2.23%
Concentration of incubated compound in human plasma ([3]; 5 min): 1.03 µM
Incubated compound in human plasma, % ([3]; 5 min): 93.5%
2-Oxo metabolite concentration in human plasma ([3]; 10 min): 0.0319 µM
2-Oxo metabolite in human plasma, % ([3]; 10 min): 2.89%
Concentration of incubated compound in human plasma ([3]; 10 min): 1.03 µM
Incubated compound in human plasma, % ([3]; 10 min): 92.8%
2-Oxo metabolite concentration in human plasma ([3]; 20 min): 0.0449 µM
2-Oxo metabolite in human plasma, % ([3]; 20 min): 4.06%
Concentration of incubated compound in human plasma ([3]; 20 min): 1.07 µM
Incubated compound in human plasma, % ([3]; 20 min): 97.1%
2-Oxo metabolite concentration in human plasma ([3]; 30 min): 0.0493 µM
2-Oxo metabolite in human plasma, % ([3]; 30 min): 4.46%
Concentration of incubated compound in human plasma ([3]; 30 min): 0.957 µM
Incubated compound in human plasma, % ([3]; 30 min): 86.6%
2-Oxo metabolite concentration in human plasma ([3]; 45 min): 0.0522 µM
2-Oxo metabolite in human plasma, % ([3]; 45 min): 4.72%
Concentration of incubated compound in human plasma ([3]; 45 min): 0.927 µM
Incubated compound in human plasma, % ([3]; 45 min): 83.9%
2-Oxo metabolite concentration in human plasma ([3]; 60 min): 0.0521 µM
2-Oxo metabolite in human plasma, % ([3]; 60 min): 4.71%
Concentration of incubated compound in human plasma ([3]; 60 min): 0.849 µM
Incubated compound in human plasma, % ([3]; 60 min): 76.8%
2-Oxo metabolite concentration in human plasma ([3]; 90 min): 0.0481 µM
2-Oxo metabolite in human plasma, % ([3]; 90 min): 4.35%
Concentration of incubated compound in human plasma ([3]; 90 min): 0.705 µM
Incubated compound in human plasma, % ([3]; 90 min): 63.8%
2-Oxo metabolite concentration in human plasma ([3]; 120 min): 0.0457 µM
2-Oxo metabolite in human plasma, % ([3]; 120 min): 4.14%
Concentration of incubated compound in human plasma ([3]; 120 min): 0.695 µM
Incubated compound in human plasma, % ([3]; 120 min): 62.9%
2-Oxo metabolite concentration in human plasma ([3]; 150 min): 0.0445 µM
2-Oxo metabolite in human plasma, % ([3]; 150 min): 4.03%
Concentration of incubated compound in human plasma ([3]; 150 min): 0.516 µM
Incubated compound in human plasma, % ([3]; 150 min): 46.7%
2-Oxo metabolite concentration in human plasma ([3]; 180 min): 0.0388 µM
2-Oxo metabolite in human plasma, % ([3]; 180 min): 3.51%
Concentration of incubated compound in human plasma ([3]; 180 min): 0.475 µM
Incubated compound in human plasma, % ([3]; 180 min): 43.0%
2-Oxo metabolite concentration in human plasma ([3]; 240 min): 0.0331 µM
2-Oxo metabolite in human plasma, % ([3]; 240 min): 3.00%
Concentration of incubated compound in human plasma ([3]; 240 min): 0.332 µM
Incubated compound in human plasma, % ([3]; 240 min): 30.0%
2-Oxo metabolite concentration in human plasma ([3]; 300 min): 0.0294 µM
2-Oxo metabolite in human plasma, % ([3]; 300 min): 2.66%
Concentration of incubated compound in human plasma ([3]; 300 min): 0.231 µM
Incubated compound in human plasma, % ([3]; 300 min): 20.9%
2-Oxo metabolite concentration in human plasma ([3]; 360 min): 0.0236 µM
2-Oxo metabolite in human plasma, % ([3]; 360 min): 2.14%
Concentration of incubated compound in human plasma ([3]; 360 min): 0.164 µM
Incubated compound in human plasma, % ([3]; 360 min): 14.8%
